Measurements from patent US4460503A, “Tuberculine active peptides and a process for preparing same by chemical synthesis” (priority 1983, dated 1984).
Where a SMILES comes first, the peptide text is derived from it. Where no end group is shown, it is not given here.

Experiments:
[1] = tested on: guinea pigs sensitized with heat-killed M. bovis BCG-Pasteur; assay: Tuberculin skin test in BCG-sensitized guinea pigs; type: in vivo; conditions: for skin reaction: 200 μg dose in 100 μl PBS intradermally; for skin reaction / color intensity of skin reaction: after 24 h; for color intensity of skin reaction: 200 μg dose intradermally; for enduration: 200 μg peptide intradermally
Method: (§1) The tuberculin tests were carried out on guinea pigs sensitized 6 weeks before with heat-killed Mycobacterium tuberculosis strain Peurois or M. bovis BCG-Pasteur.
(§2) Doses of 200 μg of the octopeptide of formula (I) or of the hexadecapeptide of formula (II) in 100 µl of PBS buffer containing Tween 80, were administered intradermally in the ventral side of guinea pigs sensitized as mentioned above.
(§3) The appearance of a delayed-type tuberculin reaction was observed 24 h and 48 h after the injection.

[2] = tested on: anti-octapeptide antiserum; type: binding, Rabbits
[3] = peptides obtained after enzymatic digestion of the tuberculin-active protein; cited from earlier work
[4] = tested on: guinea pigs sensitized with heat-killed Mycobacterium tuberculosis strain Peurois; assay: Tuberculin skin test in M. tuberculosis strain Peurois-sensitized guinea pigs; conditions: 200 μg dose, after 24 h
Method: as §1, §2, §3

BCG-infected mice = conditions: cited from earlier work
[5] = tested on: Mycobacterium tuberculosis-sensitized guinea pigs; conditions: cited from earlier work

Molecule | skin reaction [1] [mm] | color intensity of skin reaction [1] | enduration [1] | amount required to displace half of the label in radioimmunoassays [2] [pg] | tuberculin activity in skin tests [3] | other results
N[C@@H](CC(=O)O)C(=O)NCC(=O)NCC(=O)N[C@@H](CO)C(=O)N[C@@H](CCC(=O)O)C(=O)N[C@@H](CO)C(=O)N[C@@H](CCC(=O)O)C(=O)NCC(=O)O [octapeptide of formula (I), Asp-Gly-Gly-Ser-Glu-Ser-Glu-Gly] (H-DGGSESEG-OH) | 4 | low color intensity | little or no enduration | 250 |  | 
DGGSESEGK [nonapeptide 61-69] |  |  |  |  | residual tuberculin activity | 
DGGSESEGKNGSQMRL [hexadecapeptide of formula (II)] | 8 | low color intensity | little or no enduration | 500000 |  | level of recognition relative to octapeptide of formula (I) ([2]; taking into account the molecular weight): 0.1%; enduration (average) [4]: 12 mm; erythematous area, diameter (average) [4]: 11 mm
NGSQMR [hexapeptide 70-75] |  |  |  |  | residual tuberculin activity | 
NGSQMRL [synthetic heptapeptide] |  |  |  |  |  | tuberculin activity (BCG-infected mice): devoid of any tuberculin activity; tuberculin activity in skin tests [5]: devoid of any tuberculin activity
